Earlier results, collected in US20160022604A1, “DIRECTLY COMPRESSED OSPEMIFENE COMPOSITIONS” (CADILA HEALTHCARE LIMITED, priority 2014, published 2016).

Key:
[1] = experimental models and human volunteers
[2] = classical hormonal tests

In the case of `OCCOc1ccc(/C(=C(/CCCl)c2ccccc2)c2ccccc2)cc1` [Ospemifene, 2-[4-(4-chloro-1,2-diphenylbut-1-enyl)phenoxy]ethanol], the “total and LDL cholesterol levels” value [1] is given as “decreases” and the “estrogenic and antiestrogenic effects” value [2] is given as “relatively weak”.
